In PubChem BioAssay AID1259407 (Chemical Carcinogenesis Research Information System (CCRIS), 2018) one finds mutagenic call data, which are given here for six molecules.

This series deals with CCRIS mutagenicity, Ames/micronucleus/aberration tests. Kind of series: CCRIS mutagenicity studies.
Setting [1] is: Test System: AMES SALMONELLA TYPHIMURIUM, Strain/Indicator: TA98, Metabolic Activation: NONE, Method: STANDARD PLATE.
Where [2] appears, read: Test System: AMES SALMONELLA TYPHIMURIUM, Strain/Indicator: TA100, Metabolic Activation: NONE, Method: STANDARD PLATE.
Setting [3] is: Test System: AMES SALMONELLA TYPHIMURIUM, Strain/Indicator: TA97, Metabolic Activation: NONE, Method: PREINCUBATION
[4] abbreviates: Test System: AMES SALMONELLA TYPHIMURIUM, Strain/Indicator: TA102, Metabolic Activation: NONE, Method: PREINCUBATION
Setting [5] is: Test System: AMES SALMONELLA TYPHIMURIUM, Strain/Indicator: TA98, Metabolic Activation: NONE, Method: PREINCUBATION
Where [6] appears, read: Test System: AMES SALMONELLA TYPHIMURIUM, Strain/Indicator: TA1535, Metabolic Activation: NONE, Method: PREINCUBATION
Setting [7] is: Test System: AMES SALMONELLA TYPHIMURIUM, Strain/Indicator: TA1537, Metabolic Activation: NONE, Method: PREINCUBATION

The structures appear in SMILES notation. Calls of active or inactive are those of the source. How the calls were made is not given here.

Regarding `O=C1CN(/N=C/C=C/c2ccc([N+](=O)[O-])o2)C(=O)N1`, the mutagenic call by setting is: (Test System: AMES SALMONELLA TYPHIMURIUM, Strain/Indicator: TA97, Metabolic Activation: NONE, Method: STANDARD PLATE) “active; positive”; under setting [1], “active; positive”; under setting [2], “active; positive”; (Test System: E. COLI WP2, Strain/Indicator: WP2, Metabolic Activation: NONE, Method: SPOT) “active; positive”.
Turning to `CCCC(=O)OC1CCCCC1`, the mutagenic call was “inactive; negative” under setting [3]; “inactive; negative” (Test System: AMES SALMONELLA TYPHIMURIUM, Strain/Indicator: TA97, Metabolic Activation: RAT, LIVER, S-9, AROCLOR 1254, Method: PREINCUBATION); “inactive; negative” under setting [4]; “inactive; negative” (Test System: AMES SALMONELLA TYPHIMURIUM, Strain/Indicator: TA102, Metabolic Activation: RAT, LIVER, S-9, AROCLOR 1254, Method: PREINCUBATION).
As to `COc1cc2c(c3oc(=O)c4c(c13)[C@@H](O)CC4=O)[C@@H]1C=CO[C@@H]1O2`, the mutagenic call is, setting by setting: (Test System: AMES SALMONELLA TYPHIMURIUM, Strain/Indicator: TA98, Metabolic Activation: HUMAN, LIVER, S-9, Method: STANDARD PLATE) “inactive; negative”; (Test System: AMES SALMONELLA TYPHIMURIUM, Strain/Indicator: TA100, Metabolic Activation: HUMAN, LIVER, S-9, Method: STANDARD PLATE) “inactive; negative”; under setting [2], “active; positive”; (Test System: AMES SALMONELLA TYPHIMURIUM, Strain/Indicator: TA100, Metabolic Activation: RAT, LIVER, S-9, AROCLOR 1254, Method: STANDARD PLATE) “active; positive”.
`CN(C)C(=S)N(C)C`: the mutagenic call is, setting by setting: (Test System: AMES SALMONELLA TYPHIMURIUM, Strain/Indicator: TA98, Metabolic Activation: HAMSTER, LIVER, S-9, AROCLOR 1254 (10%), Method: PREINCUBATION) “inactive; negative”; under setting [5], “inactive; negative”; (Test System: AMES SALMONELLA TYPHIMURIUM, Strain/Indicator: TA98, Metabolic Activation: RAT, LIVER, S-9, AROCLOR 1254 (10%), Method: PREINCUBATION) “inactive; negative”; (Test System: AMES SALMONELLA TYPHIMURIUM, Strain/Indicator: TA100, Metabolic Activation: HAMSTER, LIVER, S-9, AROCLOR 1254 (10%), Method: PREINCUBATION) “inactive; negative”; (Test System: AMES SALMONELLA TYPHIMURIUM, Strain/Indicator: TA100, Metabolic Activation: NONE, Method: PREINCUBATION) “inactive; negative”; (Test System: AMES SALMONELLA TYPHIMURIUM, Strain/Indicator: TA100, Metabolic Activation: RAT, LIVER, S-9, AROCLOR 1254 (10%), Method: PREINCUBATION) “inactive; negative”. For the same molecule, the mutagenic call is, setting by setting: (Test System: AMES SALMONELLA TYPHIMURIUM, Strain/Indicator: TA1535, Metabolic Activation: HAMSTER, LIVER, S-9, AROCLOR 1254 (10%), Method: PREINCUBATION) “inactive; negative”; under setting [6], “inactive; negative”; (Test System: AMES SALMONELLA TYPHIMURIUM, Strain/Indicator: TA1535, Metabolic Activation: RAT, LIVER, S-9, AROCLOR 1254 (10%), Method: PREINCUBATION) “inactive; negative”; (Test System: AMES SALMONELLA TYPHIMURIUM, Strain/Indicator: TA1537, Metabolic Activation: HAMSTER, LIVER, S-9, AROCLOR 1254 (10%), Method: PREINCUBATION) “inactive; negative”; under setting [7], “inactive; negative”; (Test System: AMES SALMONELLA TYPHIMURIUM, Strain/Indicator: TA1537, Metabolic Activation: RAT, LIVER, S-9, AROCLOR 1254 (10%), Method: PREINCUBATION) “inactive; negative”.
Turning to `CNC(=O)N(C)C(=O)NO`, the mutagenic call is “inactive; negative” under setting [1] and “inactive; negative” under setting [2].
Regarding `O=C1C(Cl)=C(Cl)C(=O)c2ccccc21`, the mutagenic call reads like this: under setting [3], “inactive; negative”; (Test System: AMES SALMONELLA TYPHIMURIUM, Strain/Indicator: TA97, Metabolic Activation: RAT, LIVER, S-9, PHENOBARBITAL AND 5,6-BENZOFLAVONE, Method: PREINCUBATION) “active; positive”; under setting [5], “inactive; negative”; (Test System: AMES SALMONELLA TYPHIMURIUM, Strain/Indicator: TA98, Metabolic Activation: RAT LIVER S-9, PHENOBARBITAL AND BETA-NAPHTHOFLAVONE, Method: PREINCUBATION) “inactive; negative”; (Test System: AMES SALMONELLA TYPHIMURIUM, Strain/Indicator: TA98, Metabolic Activation: RAT, LIVER, S-9, PHENOBARBITAL AND 5,6-BENZOFLAVONE, Method: PREINCUBATION) “inactive; negative”; (Test System: AMES SALMONELLA TYPHIMURIUM, Strain/Indicator: TA100, Metabolic Activation: RAT LIVER S-9, PHENOBARBITAL AND BETA-NAPHTHOFLAVONE, Method: PREINCUBATION) “inactive; negative”. For the same molecule, the mutagenic call (Test System: AMES SALMONELLA TYPHIMURIUM, Strain/Indicator: TA100, Metabolic Activation: RAT, LIVER, S-9, PHENOBARBITAL AND 5,6-BENZOFLAVONE, Method: PREINCUBATION) is “active; positive”; the mutagenic call under setting [4] was “active; positive”; the mutagenic call (Test System: AMES SALMONELLA TYPHIMURIUM, Strain/Indicator: TA102, Metabolic Activation: RAT, LIVER, S-9, PHENOBARBITAL AND 5,6-BENZOFLAVONE, Method: PREINCUBATION) was “active; positive”; the mutagenic call (Test System: AMES SALMONELLA TYPHIMURIUM, Strain/Indicator: TA104, Metabolic Activation: NONE, Method: PREINCUBATION) was “active; positive”; the mutagenic call (Test System: AMES SALMONELLA TYPHIMURIUM, Strain/Indicator: TA104, Metabolic Activation: RAT, LIVER, S-9, PHENOBARBITAL AND 5,6-BENZOFLAVONE, Method: PREINCUBATION) is “active; positive”; the mutagenic call under setting [6] is “inactive; negative”. Moreover, the mutagenic call reads like this: (Test System: AMES SALMONELLA TYPHIMURIUM, Strain/Indicator: TA1535, Metabolic Activation: RAT LIVER S-9, PHENOBARBITAL AND BETA-NAPHTHOFLAVONE, Method: PREINCUBATION) “inactive; negative”; (Test System: AMES SALMONELLA TYPHIMURIUM, Strain/Indicator: TA1535, Metabolic Activation: RAT, LIVER, S-9, PHENOBARBITAL AND 5,6-BENZOFLAVONE, Method: PREINCUBATION) “inactive; negative”; under setting [7], “inactive; negative”; (Test System: AMES SALMONELLA TYPHIMURIUM, Strain/Indicator: TA1537, Metabolic Activation: RAT LIVER S-9, PHENOBARBITAL AND BETA-NAPHTHOFLAVONE, Method: PREINCUBATION) “inactive; negative”; (Test System: AMES SALMONELLA TYPHIMURIUM, Strain/Indicator: TA1537, Metabolic Activation: RAT, LIVER, S-9, PHENOBARBITAL AND 5,6-BENZOFLAVONE, Method: PREINCUBATION) “inactive; negative”; (Test System: AMES SALMONELLA TYPHIMURIUM, Strain/Indicator: TA1538, Metabolic Activation: NONE, Method: PREINCUBATION) “inactive; negative”. For the same molecule, the mutagenic call is, setting by setting: (Test System: AMES SALMONELLA TYPHIMURIUM, Strain/Indicator: TA1538, Metabolic Activation: RAT LIVER S-9, PHENOBARBITAL AND BETA-NAPHTHOFLAVONE, Method: PREINCUBATION) “inactive; negative”; (Test System: AMES SALMONELLA TYPHIMURIUM, Strain/Indicator: TA1538, Metabolic Activation: RAT, LIVER, S-9, PHENOBARBITAL AND 5,6-BENZOFLAVONE, Method: PREINCUBATION) “inactive; negative”; (Test System: AMES SALMONELLA TYPHIMURIUM, Strain/Indicator: TA2637, Metabolic Activation: NONE, Method: PREINCUBATION) “inactive; negative”; (Test System: AMES SALMONELLA TYPHIMURIUM, Strain/Indicator: TA2637, Metabolic Activation: RAT, LIVER, S-9, PHENOBARBITAL AND 5,6-BENZOFLAVONE, Method: PREINCUBATION) “active; positive”; (Test System: E.COLI, Strain/Indicator: WP2UVRA, Metabolic Activation: NONE, Method: PREINCUBATION) “inactive; negative”; (Test System: E.COLI, Strain/Indicator: WP2UVRA, Metabolic Activation: RAT LIVER S-9, PHENOBARBITAL AND BETA-NAPHTHOFLAVONE, Method: PREINCUBATION) “inactive; negative”.
